Source: patent US20220143152A1, “USE OF PEPTIDE DERIVED FROM H-REV107” (GJMEDI INC., priority 2019, published 2022)
Values belong to the molecule of their own block, whether it stands above or below them.

Key:
[1] = tested on: HCT116 (colon cancer) cell-line; assay: Cancer inhibitory activity, CCK-8; assay type: cell-based; conditions: HCT-116, 72 hours treatment
Protocol: (§1) Cancer cell-lines used in this example were SW480 (colon cancer), AsPC-1 (pancreatic cancer), NCI-H23 (lung cancer), NCI-H460 (lung cancer) and HCT116 (colon cancer) cell-lines. Specifically, for HCT116 and NCI-H460 cell-lines, 100 μl of a culture medium containing 2×10^3 cells per well; for SW480 and NCI-H23 cell-lines, 100 μl of a culture medium containing 5×10^3 cells per well; and, for AsPC-1 cell-line, 100 μl of a culture solution containing 1×10^4 cells per well, respectively, were seeded. The seeded cells were cultured for 24 hours for adhesion to the well, and the medium was changed. […] After completion of the culture, a cell counting kit-8 (CCK-8) solution (10 μl/well) was added, and the cells were further cultured for 4 hours in a CO2 incubator maintained at 37° C.

[2] = tested on: NCI-H460 (lung cancer) cell-line; assay: Cancer inhibitory activity, CCK-8; assay type: cell-based; conditions: NCI-H460, 72 hours treatment
Protocol: as §1

[3] = tested on: NCI-H23 (lung cancer) cell-line; assay: Cancer inhibitory activity, CCK-8; assay type: cell-based; conditions: NCI-H23, 72 hours treatment
Protocol: as §1

[4] = tested on: AsPC-1 (pancreatic cancer) cell-line; assay type: cell-based; conditions: 72 h
Protocol: as §1

[5] = tested on: SW480 (colon cancer) cell-line; assay type: cell-based; conditions: 72 h
Protocol: as §1

mutant KRAS G12V = mutant KRAS G12V (Homo sapiens, UniProt P01116, G12V); assay: GTP binding assay; assay type: biochemical; conditions: in the presence of H-REV107 protein, FIG. 3a
Protocol: The prepared mixture was incubated with a binding solution (50 mM Hepes (pH 7.5), 100 mM NaCl, 2 mM MgCl2, 1 mM EDTA and 1 mM DTT). The culture was passed through Ni-NTA resin and then bound at 4° C. […] GTP (2,500 cpm/pmol) and […] To terminate binding, a washing buffer (20 mM Tris-HCl (pH 7.4), 100 mM NaCl and 2 mM MgCl2) was added. After washing, the bound protein was eluted using 200 mM imidazole. In this example, bovine serum albumin was used as a negative control. Radioactive GTP bound to the protein was quantified by a liquid scintillation counter, and the results thereof are shown in FIG. 3.

GI50 [1]: millimolar (mM) range
GI50 [2]: millimolar (mM) range
GI50 [3]: millimolar (mM) range
GI50 [4]: 417 µM
GI50 [5]: 358 µM
Molecule: CC(C)C[C@H](N)C(=O)N[C@@H](Cc1ccc(O)cc1)C(=O)N[C@@H](CC(=O)O)C(=O)N[C@H](C(=O)N[C@@H](C)C(=O)NCC(=O)N[C@@H](CO)C(=O)N[C@@H](CC(=O)O)C(=O)N[C@@H](CCCCN)C(=O)N[C@@H](Cc1ccc(O)cc1)C(=O)O)C(C)C [CY101]

radioactive GTP binding activity of the mutant KRAS G12V (mutant KRAS G12V): somewhat reduced
B1: H-REV107 protein: H-REV107 (HRAS-like suppressor 3), a growth inhibitory RAS target gene product (protein, UniProt P53816 1-162, looked up)
Phospholipase A and …: MRAPIPEPKPGDLIEIFRPFYRHWAIYVGDGYVVHLAPPSEVAGAGAASVMSALTDKAIVKKELLYDVAGSDKYQVNNKHDDKYSPLPCSKIIQRAEELVGQEVLYKLTSENCEHFVNELRYGVARSDQVRDVIIAASVAGMGLAAMSLIGVMFSRNKRQKQ
